Measured values taken from ChEMBL document CHEMBL4219035, “Synthesis of novel forskolin isoxazole derivatives with potent anti-cancer activity against breast cancer cell lines” (Bioorg Med Chem Lett, 2017).
pIC50: −log10 of the molar value. Calls of active or inactive are those of the source. The rule behind the calls is not given here.

Legend:
Assay type in all cases: functional, cell-based
BT-474 = assay: Antiproliferative activity against human BT474 cells after 48 hrs by Alamar blue assay; conditions: BT-474, 48 h
MCF7 [1] = assay: Antiproliferative activity against human MCF7 cells after 48 hrs by Alamar blue assay; conditions: MCF7, 48 h
MCF7 [2] = assay: Cytotoxicity against human MCF7 cells assessed as morphological changes after 48 hrs by microscopic analysis

| pIC50 (BT-474) | pIC50 (MCF7 [1]) | SMILES | Activity (MCF7 [2]) |
| --- | --- | --- | --- |
| < 4.00 | 4.23 | CC(=O)O[C@H]1[C@H]2C(C)(C)CC[C@H](OCc3cc(-c4ccc(C)cc4)no3)[C@]2(C)[C@@]2(O)C(=O)C[C@](C)(C3CC(c4ccc(C)cc4)=NO3)O[C@]2(C)[C@H]1O (stereo partly specified) | – |
| < 4.00 | 4.20 | C=C[C@@]1(C)CC(=O)[C@]2(O)[C@@]3(C)[C@@H](O)CCC(C)(C)[C@@H]3[C@H](O)[C@H](OC(C)=O)[C@@]2(C)O1 [COLFORSIN] | Active |
| < 4.00 | 4.26 | C=C[C@@]1(C)CC(=O)[C@]2(O)[C@@]3(C)[C@@H](OCc4cc(-c5cc(OC)c(OC)c(OC)c5)no4)CCC(C)(C)[C@@H]3[C@H](O)[C@H](OC(C)=O)[C@@]2(C)O1 | – |
| < 4.00 | 4.49 | C=C[C@@]1(C)CC(=O)[C@]2(O)[C@@]3(C)[C@@H](OCc4cc(-c5ccc(C)cc5)no4)CCC(C)(C)[C@@H]3[C@H](OC(C)=O)[C@H](O)[C@@]2(C)O1 | – |
| < 4.00 | 5.40 | C=C[C@@]1(C)CC(=O)[C@]2(O)[C@@]3(C)[C@@H](OCc4cc(-c5ccc(Cl)cc5)no4)CCC(C)(C)[C@@H]3[C@H](OC(C)=O)[C@H](O)[C@@]2(C)O1 | – |
| < 4.00 | 5.36 | C=C[C@@]1(C)CC(=O)[C@]2(O)[C@@]3(C)[C@@H](OCc4cc(-c5cc(OC)c(OC)c(OC)c5)no4)CCC(C)(C)[C@@H]3[C@H](OC(C)=O)[C@H](O)[C@@]2(C)O1 | – |
| 4.10 | 4.28 | CC(=O)O[C@H]1[C@@H](O)[C@H]2C(C)(C)CC[C@H](OCc3cc(-c4ccc(OCc5ccccc5)cc4)no3)[C@]2(C)[C@@]2(O)C(=O)C[C@](C)(C3CC(c4ccc(OCc5ccccc5)cc4)=NO3)O[C@]12C (stereo partly specified) | – |
| < 4.00 | 4.24 | C=C[C@@]1(C)CC(=O)[C@]2(O)[C@@]3(C)[C@@H](OCc4cc(-c5ccc(OC)cc5)no4)CCC(C)(C)[C@@H]3[C@H](OC(C)=O)[C@H](O)[C@@]2(C)O1 | – |
| < 4.00 | 6.30 | C=C[C@@]1(C)CC(=O)[C@]2(O)[C@@]3(C)[C@@H](OCc4cc(-c5c(OC)cc(OC)cc5OC)no4)CCC(C)(C)[C@@H]3[C@H](OC(C)=O)[C@H](O)[C@@]2(C)O1 | – |
| < 4.00 | 4.52 | C#CCO[C@H]1CCC(C)(C)[C@@H]2[C@H](OC(C)=O)[C@H](O)[C@@]3(C)O[C@@](C)(C=C)CC(=O)[C@]3(O)[C@@]12C | – |
| < 4.00 | < 4.00 | C#CCO[C@H]1CCC(C)(C)[C@@H]2[C@H](O)[C@H](OC(C)=O)[C@@]3(C)O[C@@](C)(C=C)CC(=O)[C@]3(O)[C@@]12C | – |
| < 4.00 | 5.25 | CC(=O)O[C@H]1[C@@H](O)[C@H]2C(C)(C)CC[C@H](OCc3cc(-c4ccc(C)cc4)no3)[C@]2(C)[C@@]2(O)C(=O)C[C@](C)(C3CC(c4ccc(C)cc4)=NO3)O[C@]12C (stereo partly specified) | – |
| 5.89 | 5.48 | CC(=O)O[C@H]1[C@H]2C(C)(C)CC[C@H](OCc3cc(-c4ccc(OCc5ccccc5)cc4)no3)[C@]2(C)[C@@]2(O)C(=O)C[C@](C)(C3CC(c4ccc(OCc5ccccc5)cc4)=NO3)O[C@]2(C)[C@H]1O (stereo partly specified) | – |
| < 4.00 | 6.30 | C=C[C@@]1(C)CC(=O)[C@]2(O)[C@@]3(C)[C@@H](OCc4cc(-c5c(OC)cc(OC)cc5OC)no4)CCC(C)(C)[C@@H]3[C@H](O)[C@H](OC(C)=O)[C@@]2(C)O1 | – |
| < 4.00 | 4.45 | CC(=O)O[C@H]1[C@@H](O)[C@H]2C(C)(C)CC[C@H](OCc3cc(-c4ccccc4)no3)[C@]2(C)[C@@]2(O)C(=O)C[C@](C)(C3CC(c4ccccc4)=NO3)O[C@]12C (stereo partly specified) | – |
| < 4.00 | 4.10 | COc1ccc(C2=NOC([C@@]3(C)CC(=O)[C@]4(O)[C@@]5(C)[C@@H](OCc6cc(-c7ccc(OC)cc7)no6)CCC(C)(C)[C@@H]5[C@H](OC(C)=O)[C@H](O)[C@@]4(C)O3)C2)cc1 (stereo partly specified) | – |
| < 4.00 | 4.07 | C=C[C@@]1(C)CC(=O)[C@]2(O)[C@@]3(C)[C@@H](OCc4cc(-c5ccc(OCc6ccccc6)cc5)no4)CCC(C)(C)[C@@H]3[C@H](OC(C)=O)[C@H](O)[C@@]2(C)O1 | – |

| pIC50 (BT-474) | pIC50 (MCF7 [1]) | SMILES | Activity (MCF7 [2]) |
| --- | --- | --- | --- |
| 4.53 | 6.30 | CC[C@@]1(C)CC(=O)[C@]2(O)[C@@]3(C)[C@@H](OCc4cc(-c5cc(OC)c(OC)c(OC)c5)no4)CCC(C)(C)[C@@H]3[C@H](O)[C@H](OC(C)=O)[C@@]2(C)O1 | – |
| 5.15 | 5.80 | CC[C@@]1(C)CC(=O)[C@]2(O)[C@@]3(C)[C@@H](OCc4cc(-c5ccc(Cl)cc5)no4)CCC(C)(C)[C@@H]3[C@H](O)[C@H](OC(C)=O)[C@@]2(C)O1 | – |
| 5.37 | 5.52 | COc1ccc(C2=NOC([C@@]3(C)CC(=O)[C@]4(O)[C@@]5(C)[C@@H](OCc6cc(-c7ccc(OC)cc7)no6)CCC(C)(C)[C@@H]5[C@H](O)[C@H](OC(C)=O)[C@@]4(C)O3)C2)cc1 (stereo partly specified) | – |
| 5.68 | 6.30 | CC[C@@]1(C)CC(=O)[C@]2(O)[C@@]3(C)[C@@H](OCc4cc(-c5ccc(OC)cc5)no4)CCC(C)(C)[C@@H]3[C@H](O)[C@H](OC(C)=O)[C@@]2(C)O1 | Active |
| 6.30 | 6.30 | C=C[C@@]1(C)CC(=O)[C@]2(O)[C@@]3(C)[C@@H](OCc4cc(-c5ccc(OCc6ccccc6)cc5)no4)CCC(C)(C)[C@@H]3[C@H](O)[C@H](OC(C)=O)[C@@]2(C)O1 | Active |
| 5.04 | 5.59 | CC[C@@]1(C)CC(=O)[C@]2(O)[C@@]3(C)[C@@H](OCc4cc(-c5ccccc5)no4)CCC(C)(C)[C@@H]3[C@H](O)[C@H](OC(C)=O)[C@@]2(C)O1 | – |
| < 4.00 | 6.30 | COc1ccc(C2=NOC([C@@]3(C)CC(=O)[C@]4(O)[C@@]5(C)[C@@H](OCc6cc(-c7ccc(OC)c(OC)c7)no6)CCC(C)(C)[C@@H]5[C@H](OC(C)=O)[C@H](O)[C@@]4(C)O3)C2)cc1OC (stereo partly specified) | – |
| < 4.00 | 5.96 | C=C[C@@]1(C)CC(=O)[C@]2(O)[C@@]3(C)[C@@H](OCc4cc(-c5ccc(OC)c(OC)c5)no4)CCC(C)(C)[C@@H]3[C@H](O)[C@H](OC(C)=O)[C@@]2(C)O1 | – |
| 4.12 | 5.15 | C=C[C@@]1(C)CC(=O)[C@]2(O)[C@@]3(C)[C@@H](OCc4cc(-c5ccc(C)cc5)no4)CCC(C)(C)[C@@H]3[C@H](O)[C@H](OC(C)=O)[C@@]2(C)O1 | – |
| < 4.00 | 6.30 | COc1ccc(C2=NOC([C@@]3(C)CC(=O)[C@]4(O)[C@@]5(C)[C@@H](OCc6cc(-c7ccc(OC)c(OC)c7)no6)CCC(C)(C)[C@@H]5[C@H](O)[C@H](OC(C)=O)[C@@]4(C)O3)C2)cc1OC (stereo partly specified) | – |
| 5.40 | 6.30 | C=C[C@@]1(C)CC(=O)[C@]2(O)[C@@]3(C)[C@@H](OCc4cc(-c5ccc(OC)cc5)no4)CCC(C)(C)[C@@H]3[C@H](O)[C@H](OC(C)=O)[C@@]2(C)O1 | Active |
| < 4.00 | 5.25 | C=C[C@@]1(C)CC(=O)[C@]2(O)[C@@]3(C)[C@@H](OCc4cc(-c5ccc(Cl)cc5)no4)CCC(C)(C)[C@@H]3[C@H](O)[C@H](OC(C)=O)[C@@]2(C)O1 | – |
| 4.55 | 4.92 | C=C[C@@]1(C)CC(=O)[C@]2(O)[C@@]3(C)[C@@H](OCc4cc(-c5ccc(OC)c(OC)c5)no4)CCC(C)(C)[C@@H]3[C@H](OC(C)=O)[C@H](O)[C@@]2(C)O1 | – |
| 5.30 | 6.30 | C=C[C@@]1(C)CC(=O)[C@]2(O)[C@@]3(C)[C@@H](OCc4cc(-c5ccccc5)no4)CCC(C)(C)[C@@H]3[C@H](O)[C@H](OC(C)=O)[C@@]2(C)O1 | Active |
| < 4.00 | 5.00 | C#CCO[C@H]1CCC(C)(C)[C@@H]2[C@H](O)[C@H](OC(C)=O)[C@@]3(C)O[C@@](C)(CC)CC(=O)[C@]3(O)[C@@]12C | – |
| < 4.00 | 5.02 | CC[C@@]1(C)CC(=O)[C@]2(O)[C@@]3(C)[C@@H](OCc4cc(-c5ccc(OC)c(OC)c5)no4)CCC(C)(C)[C@@H]3[C@H](O)[C@H](OC(C)=O)[C@@]2(C)O1 | – |
